In publication PMC9367459 (Animals : an Open Access Journal from MDPI, 2022):
Values joined by “and” are separate entries in the source; they are usually repeats but may differ in a detail not shown here. Equal entries are not always repeated. Where two headings read alike, the source gives them in different places.

Columns and labels:
[1] = molecular target: FMDV 3C^pro (Foot-and-mouth disease virus, UniProt P03306); assay: cell-based; conditions: for IC90: HEK-293T
[2] = tested on: IFN-antagonist activity of FMDV 3C^pro; format: cell-based, human
[3] = in vitro; conditions: hamster
[4] = tested on: FMDV; format: cell-based, FMDV serotype A, A/TAI/NP05/2016 (NP05)
[5] = tested on: BHK-21 cells; conditions: hamster
[6] = tested on: FMDV serotype A; assay: organism not typed; conditions: BHK-21
[7] = tested on: FMDV; format: cell-based, FMDV serotype A, A/TAI/NP05/2016 (NP05); remark: listed apart in the source
[8] = tested on: FMDV serotype A; format: cell-based, A/TAI/NP05/2016 (NP05)
[9] = in vitro; conditions: human
[10] = tested on: FMDV serotype A
[11] = tested on: hepatitis B virus; conditions: cited from earlier work
[12] = tested on: chikungunya virus; conditions: cited from earlier work

Chain of FMDV 3C^pro (P03306 1650-1862 limits assumed): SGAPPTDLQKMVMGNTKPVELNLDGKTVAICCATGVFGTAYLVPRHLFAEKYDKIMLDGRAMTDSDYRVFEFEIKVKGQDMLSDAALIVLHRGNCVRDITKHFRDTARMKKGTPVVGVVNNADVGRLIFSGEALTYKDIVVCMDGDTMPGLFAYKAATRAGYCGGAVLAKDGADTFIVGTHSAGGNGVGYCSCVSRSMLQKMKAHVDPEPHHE

SMILES | IC50 [1] [µM] | IC90 [1] [µM] | Effect on IFN-antagonist activity of 3C^pro [2] | ISG15 mRNA expression [2] | ISG56 mRNA expression [2] | Mx-1 mRNA expression [2] | OAS-1 mRNA expression [2] | PKR mRNA expression [2] | CC50 [3] [µM] | Extracellular virucidal activity [4] | CC10 [5] [µM] | CC50 [5] [µM] | EC50 [6] [µM] | Protection activity [7] | Viral nucleic acids (viral copy numbers) [8] | CC50 [9] [µM] | EC50 [10] [µM] | SI (CC50/EC50) [10] | EC50 [11] [µM] | EC50 [12]
C=C1CC[C@@H]2[C@](C)(CO)[C@H](O)CC[C@@]2(C)[C@@H]1CCC1=CCOC1=O [DAG, deoxyandrographolide] | 25.6 ± 1.41 | 123 ± 2.09 | significantly derepressed the IFN-antagonist activity of the 3C^pro | 62.36 fold-changes and 64.43 fold-changes | 84.77 fold-changes and 77.60 fold-changes | 14.37 fold-changes and 13.04 fold-changes | 250.25 fold-changes and 244.76 fold-changes | 11.65 fold-changes and 12.84 fold-changes | 211.5 ± 0.03 | neither extracellular virucidal nor protection activities | 81.05 ± 0.01 | 332.3 ± 0.09 | 36.47 ± 0.07 | neither extracellular virucidal nor protection activities | significantly decreased | 651.4 ± 0.32 |  |  |  | 
C=C1CC[C@@H]2[C@](C)(CO[C@@H]3O[C@H](CO)[C@@H](O)[C@H](O)[C@H]3O)CCC[C@@]2(C)[C@@H]1CCC1=CCOC1=O [NEO, neoandrographolide] | 111 ± 2.04 | 635.8 ± 2.9 | could not reduce the IFN suppression by 3C^pro | 37.58 fold-changes and 32.91 fold-changes | 62.33 fold-changes and 55.39 fold-changes | 2.19 fold-changes and 4.00 fold-changes | 106.88 fold-changes and 163.69 fold-changes | 3.65 fold-changes and 1.99 fold-changes | 332.3 ± 0.09 | neither extracellular virucidal nor protection activities | 149.94 ± 0.21 | 211.5 ± 0.03 | > 500 | neither extracellular virucidal nor protection activities | reduced viral replication to a lesser extent | 914.2 ± 0.04 | 542.4 ± 0.2 | 0.38 |  | 
C=C1CC[C@@H]2[C@](C)(CO)[C@H](O)CC[C@@]2(C)[C@@H]1C/C=C1/C(=O)OC[C@H]1O [AGL, andrographolide] | 67.4 ± 0.81 | 267.2 ± 2.43 | significantly derepressed the IFN-antagonist activity of the 3C^pro | 52.93 fold-changes and 59.99 fold-changes | 72.73 fold-changes and 107.66 fold-changes | 5.33 fold-changes and 6.98 fold-changes |  | 6.22 fold-changes and 6.12 fold-changes | 116.8 ± 0.03 | neither extracellular virucidal nor protection activities | 94.55 ± 0.02 |  | 52.18 ± 0.01 | neither extracellular virucidal nor protection activities | significantly decreased | 453 ± 0.04 |  | 2.23 | 54.1 | 77.4 µM and 88 µM
